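The compound was tested at five concentrations on cells cultured in 96-well plates, with a 48-hour exposure period. GI50 is the concentration that inhibits growth by half.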 Activity calls are given as the source filed them. No stated cut-off is given here; in the data, active = GI50 up to about 1.1 µM and inactive = higher.
Experiments:
Assay in all cases: NCI tumour cell line growth inhibition, 48 h
HT-29 = test system: HT-29
DU-145 = test system: DU-145
SW-620 = test system: SW-620
NCI-H460 = test system: NCI-H460
HOP-62 = test system: HOP-62
786-0 = test system: 786-0
CCRF-CEM = test system: CCRF-CEM
A498 = test system: A498
LOX IMVI = test system: LOX IMVI
HOP-92 = test system: HOP-92
OVCAR-5 = test system: OVCAR-5
MDA-N = test system: MDA-N
M14 = test system: M14
IGROV-1 = test system: IGROV-1
MDA-MB-231 = test system: MDA-MB-231
RPMI-8226 = test system: RPMI-8226
SN12C = test system: SN12C
U-251 = test system: U-251
UO-31 = test system: UO-31
SK-MEL-28 = test system: SK-MEL-28
SF-539 = test system: SF-539
BT-549 = test system: BT-549
COLO 205 = test system: COLO 205
PC-3 = test system: PC-3
CAKI-1 = test system: CAKI-1
SR = test system: SR
UACC-257 = test system: UACC-257
T47D = test system: T47D
SK-MEL-2 = test system: SK-MEL-2
MOLT-4 = test system: MOLT-4
RXF 393 = test system: RXF 393
SNB-75 = test system: SNB-75
MCF7 = test system: MCF7
KM12 = test system: KM12
NCI/ADR-RES = test system: NCI/ADR-RES
MDA-MB-435 = test system: MDA-MB-435
HL-60 = test system: HL-60
ACHN = test system: ACHN
SNB-19 = test system: SNB-19
A549 = test system: A549
NCI-H522 = test system: NCI-H522
SK-MEL-5 = test system: SK-MEL-5
HCT-116 = test system: HCT-116
EKVX = test system: EKVX
OVCAR-8 = test system: OVCAR-8
NCI-H23 = test system: NCI-H23
SK-OV-3 = test system: SK-OV-3
HCT-15 = test system: HCT-15
UACC-62 = test system: UACC-62
SF-295 = test system: SF-295
SF-268 = test system: SF-268
OVCAR-3 = test system: OVCAR-3
HCC 2998 = test system: HCC 2998
TK-10 = test system: TK-10
Hs-578T = test system: Hs-578T
NCI-H226 = test system: NCI-H226
K562 = test system: K562

## COc1ccc(C(OCC2OC(n3ccc(Oc4c(F)c(F)c(F)c(F)c4F)nc3=O)CC2OP(OCCC#N)N(C(C)C)C(C)C)(c2ccccc2)c2ccc(OC)cc2)cc1 (configuration not stated)
HT-29
  GI50: > 100 µM (inactive)
DU-145
  GI50: > 100 µM (inactive)
SW-620
  GI50: > 100 µM (inactive)
NCI-H460
  GI50: > 100 µM (inactive)
HOP-62
  GI50: > 100 µM (inactive)
786-0
  GI50: > 100 µM (inactive)
CCRF-CEM
  GI50: 77.3 µM (inactive)
A498
  GI50: > 100 µM (inactive)
LOX IMVI
  GI50: > 100 µM (inactive)
HOP-92
  GI50: > 100 µM (inactive)
OVCAR-5
  GI50: > 100 µM (inactive)
MDA-N
  GI50: > 100 µM (inactive)
M14
  GI50: > 100 µM (inactive)
IGROV-1
  GI50: > 100 µM (inactive)
MDA-MB-231
  GI50: > 100 µM (inactive)
RPMI-8226
  GI50: > 100 µM (inactive)
SN12C
  GI50: > 100 µM (inactive)
U-251
  GI50: > 100 µM (inactive)
UO-31
  GI50: > 100 µM (inactive)
SK-MEL-28
  GI50: > 100 µM (inactive)
SF-539
  GI50: > 100 µM (inactive)
BT-549
  GI50: > 100 µM (inactive)
COLO 205
  GI50: > 100 µM (inactive)
PC-3
  GI50: > 100 µM (inactive)
CAKI-1
  GI50: > 100 µM (inactive)
SR
  GI50: > 100 µM (inactive)
UACC-257
  GI50: > 100 µM (inactive)
T47D
  GI50: > 100 µM (inactive)
SK-MEL-2
  GI50: > 100 µM (inactive)
MOLT-4
  GI50: > 100 µM (inactive)
RXF 393
  GI50: > 100 µM (inactive)
SNB-75
  GI50: > 100 µM (inactive)
MCF7
  GI50: > 100 µM (inactive)
KM12
  GI50: > 100 µM (inactive)
NCI/ADR-RES
  GI50: > 100 µM (inactive)
MDA-MB-435
  GI50: > 100 µM (inactive)
HL-60
  GI50: > 100 µM (inactive)
ACHN
  GI50: > 100 µM (inactive)
SNB-19
  GI50: > 100 µM (inactive)
A549
  GI50: > 100 µM (inactive)
NCI-H522
  GI50: > 100 µM (inactive)
SK-MEL-5
  GI50: 68.2 µM (inactive)
HCT-116
  GI50: > 100 µM (inactive)
EKVX
  GI50: > 10 µM (inactive)
OVCAR-8
  GI50: > 100 µM (inactive)
NCI-H23
  GI50: 42.8 µM (inactive)
SK-OV-3
  GI50: > 100 µM (inactive)
HCT-15
  GI50: > 100 µM
UACC-62
  GI50: > 100 µM (inactive)
SF-295
  GI50: > 100 µM (inactive)
SF-268
  GI50: > 100 µM (inactive)
OVCAR-3
  GI50: > 100 µM (inactive)
HCC 2998
  GI50: > 100 µM (inactive)
TK-10
  GI50: > 100 µM (inactive)
Hs-578T
  GI50: > 100 µM (inactive)
NCI-H226
  GI50: > 100 µM (inactive)
K562
  GI50: > 100 µM (inactive)

Source: ChEMBL document CHEMBL1201862, “PubChem BioAssay data set” (2004)
